# Laboratory results from publication PMC11767801, “Purine but Not Pyrimidine De Novo Nucleotide Biosynthesis Inhibitors Strongly Enhance the Antiviral Effect of Corresponding Nucleobases Against Dengue Virus” (Molecules, 2025).
# pEC50: −log10 of the molar value. Entries after “also recorded” stand apart in the source; their conditions may differ. Read-outs that look alike come from different tables or passages of the source.
# Legend:
# [1] = Cell viability assay (MTS); format: cell-based; settings: hamster
# Procedure: (§1) The following cell lines were used in this study: (i) Huh7 was purchased from JCRB Cell Bank (Seikisui XenoTech, Kansas City, MO, USA) and cultured in Minimum Essential Medium (MEM) supplemented with 10% fetal bovine serum (FBS), and 1× non-essential amino acids (NEAA), 1 mM sodium pyruvate, 100 IU penicillin/streptomycin per mL, 5 µg/mL plasmocin (InvivoGen, San Diego, CA, USA), 1× GlutaMAX, and (ii) BHK pD2-hRucPac-2ATG30 DENV replicon cells were a gift from M. Diamond (Washington University School of Medicine) and cultured in Dulbecco’s modified Eagle’s medium (DMEM) supplemented with 10% FBS, 100 IU penicillin/streptomycin per mL, 5 µg/mL plasmocin, 1× GlutaMAX, and 3 µg/mL puromycin (InvivoGen). (iii) A549 Ace2 TMPRSS2 cells were provided by M. Saeed (Boston University) and grown in DMEM supplemented with 10% FBS, 100 IU penicillin/streptomycin per mL, 10 mM HEPES, 1× NEAA, 1× GlutaMAX, 1 mM sodium pyruvate, 5 µg/mL plasmocin, 0.5 µg/mL puromycin, and 0.5 µg/mL blasticidin (InvivoGen).
# (§2) Cell viability assays were performed as described in [9, 10, 23]. Briefly, DENV replicon cells were plated at 1500–2000 cells per well of a 96-well dish plate (Corning, NY, USA) the day before use. The next day, compounds were added and cells incubated at 37 °C, 5% CO2, in a humidified incubator for three days. The cells were washed with phosphate-buffered saline (PBS) and incubated with the MTS reagent (Promega G5430, Madison, WI, USA) as per the manufacturer’s instructions. The plates were read at a 490 nm wavelength at 30 min intervals in a BioTek (Winooski, VT, USA) Neo2 plate reader.
# DENV replicon = DENV replicon cell assay (Renilla luciferase); format: cell-based, Dengue virus (DENV); settings: for pEC50: Dengue virus; for potentiation of anti-replicon activity (in words): purine nucleobase combined with 6MMPR and/or 6MMPR prodrugs
# Procedure: as §1
# The DENV replicon assay was performed as described. Briefly, DENV replicon cells were plated at 1500–2000 cells per well […] of a 96-well dish (Corning, USA) plate the day before use. The next day, compounds were added and cells incubated at 37 °C, 5% CO2, in a humidified incubator for three days. The cells were the washed with PBS and Complete Promega Renilla reagent was added (Promega E2720, Madison, USA, 1 µL Renilla-Glo Substrate + 99 µL Renilla-Glo Buffer + 100 µL phenol-red-free DMEM supplemented with 10% FBS per well). Cells were lysed for 10 min at room temp and 160 µL of lysate per well was transferred to wells of a 96-well opaque white plate (Falcon 353296, Corning, USA), and luminescence was measured using a BioTek (Winooski, USA) Neo2 plate reader.
# [2] = test system: DENV replicon cells (BHK pD2-hRucPac-2ATG30); test: Cell viability assay (MTS); format: cell-based; settings: nucleobase combined with potentiators (6MMPR and prodrugs)
# Procedure: as §1, §2
# DENV = test system: DENV; set-up: method as in PMID 29672522; settings: cited from earlier work
# [3] = test system: ZIKV PAN1 Nluc reporter virus; test: ZIKV nanoluc reporter virus assay in A549 Ace2 TMPRSS2 cells; format: cell-based, Zika virus (ZIKV); settings: three days
# Procedure: (§3) Figure 5 Flavivirus inhibition by the nucleobase 2-thiouracil (2SU) and the corresponding nucleoside 2-thiouridine (2SUridine). (A) Dose–response assay for inhibition of a ZIKV nanoluc reporter. Cells were inoculated with reporter virus for two hours, washed, and then compound-added. Three days later, cells were lysed, and the luciferase activity was analyzed. (B) DENV-induced cytopathic effects in compound-treated cells. Cells were inoculated with DENV for two hours, washed, and compound-added for five days. A neutral red assay was performed to determine cell viability. (C) Same as in (B), except the cells are not treated with virus. NITD = NITD008 a positive-control DENV inhibitor.
# The following viruses were used in this study: (i) ZIKV PAN1 Nluc reporter virus has a nanoluc gene inserted into the viral genome as described. The virus was propagated and virus preps tittered as described. (ii) DENV type 2 New Guinea C strain (VR-1584) was obtained from ATCC (Manassas, VA, USA) and propagated in C6/36 mosquito cells as described.
# The ZIKV nanoluc reporter virus assay was performed as described. Briefly, A549 Ace2 TMPRSS2 cells were plated into 96-well plates at 15,000 per well the night before use. […] The luciferase levels were measured using a Neo 2 plate reader (BioTek, Winooski, USA).
# [4] = test system: DENV type 2 New Guinea C strain; test: DENV CPE assay in Huh7 cells (neutral red); format: cell-based, Dengue virus (DENV); settings: five days
# Procedure: as §3
# The following viruses were used in this study: (i) ZIKV PAN1 Nluc reporter virus has a nanoluc gene inserted into the viral genome as described. The virus was propagated and virus preps tittered as described. […]
# Huh7 cells were plated into 96-well plates at 10,000 cells per well the day before use. […] The compounds were removed, and the viability of the cells was measured using a neutral red staining assay. […] Neutral red destain buffer (50% ethanol, 49% H2O, and 1% glacial acetic acid) was added at 100 µL per well and the plates were read at 540 nm in a Molecular Device (San Jose, CA, USA) M5e plate reader.
# [5] = compound alone, DENV replicon cells, MTS, three days
# [6] = 72 h, compound alone, DENV BHK replicon cells, luciferase, three days
# [7] = Table 3, nucleobase dose-response plus vehicle (DMSO)
# [8] = nucleobase dose-response +6MMPR 0.065 μM
# [9] = nucleobase dose-response +Prdg 1 0.09 μM
# [10] = nucleobase dose-response +Prdg 2 1.5 μM
# [11] = nucleobase dose-response +Prdg 3 1.4 μM
# [12] = 72 h, Table 3, nucleobase dose-response plus vehicle (DMSO)
smiles,measurement,setting,value
CSc1ncnc2c1ncn2[C@@H]1O[C@H](COC(=O)N(C)C)[C@@H](O)[C@H]1O [Prdg 2],CC50 at 3 days,[1]; [5],5.4 µM
same,pEC50,DENV replicon; [6],5.60
"CSc1ncnc2c1ncn2[C@@H]1O[C@H](CO)[C@@H](O)[C@H]1O [Prdg 6MMPR, 6-methylmercaptopurine riboside]",CC50 at 3 days,[1]; [5],0.21 µM
same,pEC50,DENV replicon; [6],6.68
NC(=O)c1nc[nH]n1 [Ribavirin nucleobase],toxicity of combination (in words),[2],conferred some toxicity not shown by either compound alone
same,CC50 at 3 days,[1]; [7],> 50 µM
same,CC50 at 3 days,[1]; [5],> 100 µM
same,CC50 at 3 days,[1]; [8],> 50 µM
same,CC50 at 3 days,[1]; [9],> 50 µM
same,CC50 at 3 days,[1]; [10],> 50 µM
same,CC50 at 3 days,[1]; [11],> 50 µM
same,pEC50,DENV replicon; [12],5.24
same,pEC50,DENV replicon; [6],5.24
same,pEC50,DENV replicon; [8],5.47
same,pEC50,DENV replicon; [9],5.64
same,pEC50,DENV replicon; [10],6.06
same,pEC50,DENV replicon; [11],5.59
same,potentiation of anti-replicon activity (in words),DENV replicon,can be potentiated
same,anti-DENV activity (in words),DENV,similarly strong antiviral activity
same,cytotoxicity (in words),DENV,considerably less cytotoxic than ribavirin
same,anti-DENV activity (in words),DENV; listed as ribavirin nucleobase,strong
same,cytotoxicity (in words),DENV; listed as ribavirin nucleobase,non-cytotoxic
"O=c1cc[nH]c(=S)[nH]1 [Prdg 2-thiouracil, 2-thiouracil]",CC50 at 3 days,[1]; [5],> 50 µM
same,pEC50,DENV replicon; [6],< 4.30
NC(=O)c1ncc[nH]c1=O [Prdg T-1105],CC50 at 3 days,[1]; [7],> 167 µM
same,CC50 at 3 days,[1]; [5],> 500 µM
same,CC50 at 3 days,[1]; [8],> 167 µM
same,CC50 at 3 days,[1]; [9],> 167 µM
same,CC50 at 3 days,[1]; [10],> 167 µM
same,CC50 at 3 days,[1]; [11],> 167 µM
same,pEC50,DENV replicon; [12],4.82
same,pEC50,DENV replicon; [6],4.89
same,pEC50,DENV replicon; [8],4.96
same,pEC50,DENV replicon; [9],5.08
same,pEC50,DENV replicon; [10],5.00
same,pEC50,DENV replicon; [11],5.02
same,potentiation of anti-replicon activity (in words),DENV replicon,strongly potentiated
O=c1ccn([C@@H]2O[C@H](CO)[C@@H](O)[C@H]2O)c(=S)[nH]1 [2-thiouridine],"antiviral activity, ZIKV reporter virus replication (in words)",[3],observe antiviral activity
same,CC50 at 3 days,[1]; [5],> 50 µM
same,pEC50,DENV replicon; [6],< 4.30
same,anti-replicon activity (in words),"DENV replicon; compound alone, DENV BHK replicon cell line",we did not observe activity
same,"antiviral activity, DENV-induced cytopathic effects (in words)",[4],observe antiviral activity
NC(=O)c1nc(F)c[nH]c1=O [Favipiravir],CC50 at 3 days,[1]; [7],> 500 µM
same,CC50 at 3 days,[1]; [5],> 500 µM
same,CC50 at 3 days,[1]; [8],> 500 µM
same,CC50 at 3 days,[1]; [9],> 500 µM
same,CC50 at 3 days,[1]; [10],> 500 µM
same,CC50 at 3 days,[1]; [11],> 500 µM
same,pEC50,DENV replicon; [12],3.89
same,pEC50,DENV replicon; [6],3.94
same,pEC50,DENV replicon; [8],4.20
same,pEC50,DENV replicon; [9],4.29
same,pEC50,DENV replicon; [10],4.33
same,pEC50,DENV replicon; [11],4.34
same,potentiation of anti-replicon activity (in words),DENV replicon; listed as FAV,clear enhanced effect; also recorded: reduction in the EC50 value
"O=c1cnn([C@@H]2O[C@H](CO)[C@@H](O)[C@H]2O)c(=O)[nH]1 [Prdg 6-azauridine, 6-azauridine]",CC50 at 3 days,[1]; [5],8.8 µM
same,pEC50,DENV replicon; [6],5.72
Cc1c(-c2ccc(-c3ccccc3F)cc2)nc2ccc(F)cc2c1C(=O)O [Brequinar],CC50 at 3 days,[1]; [5],4.5 µM
same,pEC50,DENV replicon; [6],5.52
CSc1ncnc2c1ncn2[C@@H]1O[C@H](COC(=O)N(C)C)[C@@H](OC(=O)C(C)C)[C@H]1OC(=O)C(C)C [Prdg 3],CC50 at 3 days,[1]; [5],2.4 µM
same,pEC50,DENV replicon; [6],5.64
CSc1ncnc2c1ncn2[C@@H]1O[C@H](COC(=O)C(C)C)[C@@H](OC(=O)C(C)C)[C@H]1OC(=O)C(C)C [Prdg 1],CC50 at 3 days,[1]; [5],2.6 µM
same,pEC50,DENV replicon; [6],6.59
O=c1[nH]cc(F)c(=O)[nH]1 [5-fluorouracil],CC50 at 3 days,[1]; [5],0.93 µM
same,pEC50,DENV replicon; [6],6.13
CC(C)C(=O)OC[C@H]1O[C@@H](n2ccc(NO)nc2=O)[C@H](O)[C@@H]1O [Molnupiravir],CC50 at 3 days,[1]; [5],53 µM
same,pEC50,DENV replicon; [6],5.21
